From PMC10830462, “Molecular insights into the dynamic modulation of bacterial ClpP function and oligomerization by peptidomimetic boronate compounds” (Scientific Reports, 2024) come the findings set out here.

Common to all, as to type: binding
Experiment [1] deals with T1, SeClpP (ClpP from Staphylococcus epidermidis) (Staphylococcus epidermidis, UniProt Q8CTE0).
T1 construct: codon-optimised ORF in pET28a(+), C-terminal His-tag, expressed in E. coli BL21(DE3) Star; homotetradecamer (about 300 kDa) of two stacked heptameric rings, heptamers also present without glycerol; catalytic triad Ser98, His123, Asp172
T1 sequence (Q8CTE0 1-194): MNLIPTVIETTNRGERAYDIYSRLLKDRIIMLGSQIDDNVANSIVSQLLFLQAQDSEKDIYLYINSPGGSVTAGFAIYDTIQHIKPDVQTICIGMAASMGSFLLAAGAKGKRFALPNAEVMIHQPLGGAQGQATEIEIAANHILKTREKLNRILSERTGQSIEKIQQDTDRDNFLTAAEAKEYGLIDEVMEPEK
As to the kind of experiment: nanoDSF thermal shift. The following applies: 10 µM SeClpP, pH 7.5, 100 mM KCl, 2 mM DTT, no glycerol; covalent (reversible boronate). Background: DSF heats the sample and reads unfolding from a dye or from intrinsic fluorescence.

In experiment [2] the target is T1, SeClpP (ClpP from Staphylococcus epidermidis). As to the kind of experiment: isothermal titration calorimetry. The conditions noted are these: read-out: K (converted). (Isothermal titration calorimetry measures the heat released or taken up as one component is titrated into another.)
For experiment [3] the target is unchanged. Kind of experiment: X-ray crystal structure, soaked crystals, […] Å. The conditions noted are these: catalytic site; covalent (boron to Ser98, reversible); crystals soaked with 10 mM ixazomib.

On to `CC(C)C[C@H](NC(=O)CNC(=O)c1cc(Cl)ccc1Cl)B(O)O` [ixazomib], for which the melting temperature result in experiment [1] is “SeClpP bound to the peptidomimetic boronate, and therefore more thermostable”. Further, in experiment [2], the Kd was 5.38 µM. Besides, the “X-ray crystal structure, soaked crystals, 2.33 Å” value in experiment [3] is listed as “the boron atom of ixazomib is covalently bound to Ser98”.
